Measurements as given in patent US20220000964A1, “Compositions and Methods for Regulating Homeostasis of Chondrocytes, Extracellular Matrix, Articular Cartilage, and Phenotype of Arthritis” (Unigen, Inc., priority 2020, published 2022).
Read-outs that look alike come from different tables or passages of the source.

Legend:
Type in all cases: in vivo, rat
MIA-induced OA rats [1] = test: MIA-induced OA rats, pain sensitivity (paw withdrawal threshold, Randall-Salitto); details: 10 mg/kg oral; for inhibition at 10 mg/kg: Rattus norvegicus, po, read-out: Knee compression sensitivity, percent inhibition against vehicle treated MIA rats
From the text: The MIA-induced OA disease model in rats is a standardized model most frequently used to mimic human OA (Lee et al., 2014). The model involves inoculation of MIA into a femorotibial joint pocket that induces pain responses in the ipsilateral limb accompanied by progressive cartilage degradation. Intra-articular injection of MIA disrupts chondrocyte glycolysis by inhibiting […] and results in chondrocyte death, neovascularization, subchondral bone necrosis and collapse, as well as inflammation (Guzman et al., 2003). These phenotypic characteristics make the model very attractive to evaluate compounds for their anti-inflammatory, analgesic and/or potential disease-modifying activities as it shares similar disease pathology to the human OA. As a result, we selected this validated in vivo model to investigate the effect of AMK in mitigating pain sensitivity, regulating the phenotype of joint tissue and maintaining articular structural integrity after being administered orally for 6 weeks.
(§1) Treatment started a week before MIA injection. Animals were randomized into five groups of 10 rats per group as G1=normal, G2=vehicle (0.5% CMC-Na solution), G3=Diclofenac (10 mg/kg, Lot #W08B043, Ward Hill, Mass.), G4=AMK (100 mg/kg) and G5=AMK (300 mg/kg), were orally gavaged with respective treatment. On the induction day, isoflurane (Lot #B66H15A, Piramal Enterprise Ltd. Andhra Pradesh, India) anesthetized rats were injected with 0.8 mg of MIA (Lot #A0352046, Acros Organics, New Jersey, USA) in 50 μL saline solution into the intra-articular pocket of left femorotibial (knee) joint using 26 G needle an hour after treatment. Normal control rats were injected with an equal volume of saline. Paw withdrawal thresholds as a result of constant pressure applied to the affected joint as a measure of pain sensitivity were taken once a week using Randall-Salitto Anesthesiometer (IITC, USA) and treatment lasted for 6 weeks. Body weights were measured once a week to calculate the respective weekly dosage of each group. Urine was collected at the end of study using metabolic cages. Blood samples were collected to isolate serum for biomarker analysis. At necropsy, animals were asphyxiated with CO2 and the femorotibial joint was carefully dissected out, fixed in 10% buffered formalin and sent to Nationwide Histology (Veradale, Wash., USA) for further histopathology analysis. The fixed specimens were then decalcified with Calci-Clear Rapid for 1 and a half days and embedded in paraffin. Standardized […] serial sections were obtained at the medial and lateral mid-condylar level in the sagittal plane and were stained with hematoxylin and eosin (HE) and Safranin O-fast green to enable evaluation of proteoglycan content. A modified Mankin system (Mankin et al., 1981) was used to score structural and cellular alterations of articular components as indications of disease progression and/or treatment efficacy. The histological analysis was conducted by a certified Pathologist at Nationwide Histology.

IL-6 = test: MIA-induced OA rats, serum IL-6; details: 10 mg/kg
Experimental: Treatment started a week before MIA injection. […] On the induction day, isoflurane (Lot #B66H15A, Piramal Enterprise Ltd. Andhra Pradesh, India) anesthetized rats were injected with 0.8 mg of MIA (Lot #A0352046, Acros Organics, New Jersey, USA) in 50 μL saline solution into the intra-articular pocket of left femorotibial (knee) joint using 26 G needle an hour after treatment. Normal control rats were injected with an equal volume of saline. […] Body weights were measured once a week to calculate the respective weekly dosage of each group. […] The fixed specimens were then decalcified with Calci-Clear Rapid for 1 and a half days and embedded in paraffin. […] The histological analysis was conducted by a certified Pathologist at Nationwide Histology.

MIA-induced OA rats [2] = test: MIA-induced OA rats, histopathology (modified Mankin); details: 10 mg/kg
Experimental: as §1

Sprague Dawley rats = test: Hot plate test, topical application, paw withdrawal latency; details: dose (%): Ibuprofen 5, Capsaicin 0.5, Diclofenac 1, others 5
From the text: Repeated application of anti-inflammatory compounds or extracts topically at the site of thermal contact (noxious stimulus) may cause desensitization of the peripheral afferent pain receptors to produce a delay in response time. A longer change in reaction time could be interpreted as an anti-nociceptive effect of the applied compound. To evaluate whether prepared plant extracts and compositions could provide anti-nociceptive activity, rats received orally-active anti-inflammatory extracts formulated in 2% Aloe vera gel at 5% concentration topically on their hind paws. The applied preparations on each paw were massaged at least 60 times in a circular motion into the skin until the applied content appeared visually absorbed. The procedure was repeated 3 times, every 30 minutes, before placing the animals on a preheated hot plate set to 53° C. The paw withdrawal latency was calculated as the time elapsed from the initial placement of the rat onto the hotplate to the withdrawal (or licking or shaking) of the hind paw in response to the thermal stimulus. Animals were immediately removed when this response was observed.
The anti-pain activity of medicinal plant extracts was tested on a hot plate set at 53° C. Test materials at 5% concentrations were topically applied at 20 μl/paw to the hind paws of both right and left paws of Sprague Dawley rats (n=10 per group). Applications of these extracts were carried out every 30 minutes for a total of 90 minutes. Within these 90 minutes, rats received a total of 60 μl/paw of the test article per rat. At 5% concentration, each rat received 3 mg/paw of the test articles. Due to the solubility characteristics of the compounds, two types of vehicles, V1=Dimethyl sulfoxide (DMSO)+propylene glycol (PG)+Aloe (2%), and V2=DMSO+OIL+PG, were used. Percent changes and P-values for statistical significance were determined using respective vehicles for each test material. The vehicle used for each material has been indicated in the parenthesis next to the test material. […] These increases in anti-pain activity were statistically significant. […] This percent change was statistically significant when compared to its respective vehicle.

O=C(O)Cc1ccccc1Nc1c(Cl)cccc1Cl [Diclofenac]
inhibition at 10 mg/kg (MIA-induced OA rats [1]; Wk-0): 0.3%
inhibition at 10 mg/kg (MIA-induced OA rats [1]; Wk-1): 19.7%
inhibition at 10 mg/kg (MIA-induced OA rats [1]; Wk-2): 24.1%
inhibition at 10 mg/kg (MIA-induced OA rats [1]; Wk-3): 28.3%
inhibition at 10 mg/kg (MIA-induced OA rats [1]; Wk-4): 30.8%
inhibition at 10 mg/kg (MIA-induced OA rats [1]; wk-5): 31.1%
Knee compression sensitivity (Mean ± SD) (MIA-induced OA rats [1]; Wk-0): 243.1 ± 2.4
Knee compression sensitivity (Mean ± SD) (MIA-induced OA rats [1]; Wk-1): 190.9 ± 2.3
Knee compression sensitivity (Mean ± SD) (MIA-induced OA rats [1]; Wk-2): 190.5 ± 2.6
Knee compression sensitivity (Mean ± SD) (MIA-induced OA rats [1]; Wk-3): 183.8 ± 2.3
Knee compression sensitivity (Mean ± SD) (MIA-induced OA rats [1]; Wk-4): 183.3 ± 1.7
Knee compression sensitivity (Mean ± SD) (MIA-induced OA rats [1]; wk-5): 182.0 ± 1.1
IL-6 (IL-6): 114.2 ± 5.5 pg/mL
inhibition in catabolic inflammation and infiltration of inflammatory cells (MIA-induced OA rats [2]; MIA rats): 42.8%
reduction in matrix GAG loss (MIA-induced OA rats [2]; MIA rats): 34.6%
reduction of overall structural abnormalities (MIA-induced OA rats [2]; MIA rats): 41.1%
Bone Erosion (Mean ± SE) (MIA-induced OA rats [2]; modified Mankin score): 3.08 ± 0.50
Cartilage destruction (Mean ± SE) (MIA-induced OA rats [2]; modified Mankin score): 4.00 ± 0.76
GAG Loss (Mean ± SE) (MIA-induced OA rats [2]; modified Mankin score): 3.08 ± 0.57
Inflammation (Mean ± SE) (MIA-induced OA rats [2]; modified Mankin score): 1.31 ± 0.22
Bone Erosion, reduction (value in parenthesis) (MIA-induced OA rats [2]; vs MIA+ vehicle): (40.8) %
Cartilage destruction, reduction (value in parenthesis) (MIA-induced OA rats [2]; vs MIA+ vehicle): (41.10%
GAG Loss, reduction (value in parenthesis) (MIA-induced OA rats [2]; vs MIA+ vehicle): (34.6) %
Inflammation, reduction (value in parenthesis) (MIA-induced OA rats [2]; vs MIA+ vehicle): (42.8) %
Paw withdrawal threshold (latency) Mean ± SD (Sprague Dawley rats; hot plate 53° C., topical, vehicle V1 (DMSO+PG+Aloe 2%), in s (unit assumed)): 6.93 ± 1.50
% Change (Sprague Dawley rats; vs vehicle V1, negative = increased paw withdrawal latency): 2.8%
